From ChEMBL document CHEMBL4507270 (2021)

Key:
[1] = molecular target: Serine/threonine-protein kinase 36 (Homo sapiens) (UniProt Q9NRP7)
[2] = tested on: Receptor-type tyrosine-protein kinase FLT3 (Homo sapiens), P36888 [UNDEFINED MUTATION]
[3] = tested on: ALK tyrosine kinase receptor (Homo sapiens), Q9UM73 [C1156Y]
[4] = molecular target: Cyclin-dependent kinase 9 (Homo sapiens) (UniProt P50750)
[5] = molecular target: Mitogen-activated protein kinase kinase kinase 9 (Homo sapiens) (UniProt P80192)
[6] = tested on: Receptor-type tyrosine-protein kinase FLT3 (Homo sapiens), P36888 [UNDEFINED MUTATION]; remark: listed apart in the source
[7] = molecular target: TGF-beta receptor type-2 (Homo sapiens) (UniProt P37173)
[8] = molecular target: Myosin light chain kinase family member 4 (Homo sapiens) (UniProt Q86YV6)
[9] = molecular target: Serine/threonine-protein kinase TBK1 (Homo sapiens) (UniProt Q9UHD2)
[10] = molecular target: Macrophage colony-stimulating factor 1 receptor (Homo sapiens) (UniProt P07333)
[11] = tested on: Receptor-type tyrosine-protein kinase FLT3 (Homo sapiens), P36888 [UNDEFINED MUTATION]; remark: listed apart in the source
[12] = molecular target: G protein-coupled receptor kinase 4 (Homo sapiens) (UniProt P32298)
[13] = molecular target: Dual specificity mitogen-activated protein kinase kinase 5 (Homo sapiens) (UniProt Q13163)
[14] = molecular target: Serine/threonine-protein kinase TAO2 (Homo sapiens) (UniProt Q9UL54)
[15] = tested on: Tyrosine-protein kinase ABL1 (Homo sapiens), P00519 [E255K]
[16] = molecular target: 5'-AMP-activated protein kinase catalytic subunit alpha-1 (Homo sapiens) (UniProt Q13131)
[17] = molecular target: Dual specificity mitogen-activated protein kinase kinase 4 (Homo sapiens) (UniProt P45985)
[18] = tested on: Phosphatidylinositol 4,5-bisphosphate 3-kinase catalytic subunit alpha isoform (Homo sapiens), P42336 [E545K]
[19] = molecular target: Calcium/calmodulin-dependent protein kinase type IV (Homo sapiens) (UniProt Q16566)
[20] = molecular target: Protein kinase C iota type (Homo sapiens) (UniProt P41743)
[21] = molecular target: Phosphatidylinositol 4-kinase beta (Homo sapiens) (UniProt Q9UBF8)
[22] = tested on: Mast/stem cell growth factor receptor Kit (Homo sapiens), P10721 [V559D]
[23] = molecular target: Muscle, skeletal receptor tyrosine-protein kinase (Homo sapiens) (UniProt O15146)
[24] = molecular target: Sodium-dependent dopamine transporter (Homo sapiens) (UniProt Q01959); details: Compound concentration 10.0 uM
[25] = molecular target: Ephrin type-B receptor 2 (Homo sapiens) (UniProt P29323)
[26] = tested on: Tyrosine-protein kinase ABL1 (Homo sapiens), P00519 [Y253F]
[27] = molecular target: Inhibitor of nuclear factor kappa-B kinase subunit epsilon (Homo sapiens) (UniProt Q14164)
[28] = molecular target: Serine/threonine-protein kinase 32A (Homo sapiens) (UniProt Q8WU08)
[29] = molecular target: Receptor-interacting serine/threonine-protein kinase 2 (Homo sapiens) (UniProt O43353)
[30] = molecular target: Serine/threonine-protein kinase 32B (Homo sapiens) (UniProt Q9NY57)
[31] = molecular target: Receptor-type tyrosine-protein kinase FLT3 (Homo sapiens) (UniProt P36888)
[32] = molecular target: Megakaryocyte-associated tyrosine-protein kinase (Homo sapiens) (UniProt P42679)
[33] = molecular target: 5-hydroxytryptamine receptor 1E (Homo sapiens) (UniProt P28566); details: Compound concentration 10.0 uM
[34] = molecular target: Calcium/calmodulin-dependent protein kinase type II subunit gamma (Homo sapiens) (UniProt Q13555)
[35] = molecular target: Aurora kinase C (Homo sapiens) (UniProt Q9UQB9)
[36] = molecular target: Serine/threonine-protein kinase TNNI3K (Homo sapiens) (UniProt Q59H18)
[37] = molecular target: MAP kinase-interacting serine/threonine-protein kinase 2 (Homo sapiens) (UniProt Q9HBH9)
[38] = molecular target: BDNF/NT-3 growth factors receptor (Homo sapiens) (UniProt Q16620)
[39] = molecular target: Sodium-dependent noradrenaline transporter (Homo sapiens, UniProt P23975); details: Compound concentration 10.0 uM
[40] = tested on: Epidermal growth factor receptor (Homo sapiens), P00533 [G719S]
[41] = molecular target: RAC-beta serine/threonine-protein kinase (Homo sapiens) (UniProt P31751)
[42] = molecular target: Dual specificity mitogen-activated protein kinase kinase 3 (Homo sapiens) (UniProt P46734)
[43] = molecular target: NUAK family SNF1-like kinase 1 (Homo sapiens) (UniProt O60285)
[44] = molecular target: Platelet-derived growth factor receptor alpha (Homo sapiens) (UniProt P16234)
[45] = Compound concentration 1000.0 nM
[46] = Compound concentration 100.0 nM

Receptor-type tyrosine-protein kinase FLT3 (Homo sapiens), P36888 [UNDEFINED MUTATION], sequence (P36888 whole entry, looked up, stated change not applied): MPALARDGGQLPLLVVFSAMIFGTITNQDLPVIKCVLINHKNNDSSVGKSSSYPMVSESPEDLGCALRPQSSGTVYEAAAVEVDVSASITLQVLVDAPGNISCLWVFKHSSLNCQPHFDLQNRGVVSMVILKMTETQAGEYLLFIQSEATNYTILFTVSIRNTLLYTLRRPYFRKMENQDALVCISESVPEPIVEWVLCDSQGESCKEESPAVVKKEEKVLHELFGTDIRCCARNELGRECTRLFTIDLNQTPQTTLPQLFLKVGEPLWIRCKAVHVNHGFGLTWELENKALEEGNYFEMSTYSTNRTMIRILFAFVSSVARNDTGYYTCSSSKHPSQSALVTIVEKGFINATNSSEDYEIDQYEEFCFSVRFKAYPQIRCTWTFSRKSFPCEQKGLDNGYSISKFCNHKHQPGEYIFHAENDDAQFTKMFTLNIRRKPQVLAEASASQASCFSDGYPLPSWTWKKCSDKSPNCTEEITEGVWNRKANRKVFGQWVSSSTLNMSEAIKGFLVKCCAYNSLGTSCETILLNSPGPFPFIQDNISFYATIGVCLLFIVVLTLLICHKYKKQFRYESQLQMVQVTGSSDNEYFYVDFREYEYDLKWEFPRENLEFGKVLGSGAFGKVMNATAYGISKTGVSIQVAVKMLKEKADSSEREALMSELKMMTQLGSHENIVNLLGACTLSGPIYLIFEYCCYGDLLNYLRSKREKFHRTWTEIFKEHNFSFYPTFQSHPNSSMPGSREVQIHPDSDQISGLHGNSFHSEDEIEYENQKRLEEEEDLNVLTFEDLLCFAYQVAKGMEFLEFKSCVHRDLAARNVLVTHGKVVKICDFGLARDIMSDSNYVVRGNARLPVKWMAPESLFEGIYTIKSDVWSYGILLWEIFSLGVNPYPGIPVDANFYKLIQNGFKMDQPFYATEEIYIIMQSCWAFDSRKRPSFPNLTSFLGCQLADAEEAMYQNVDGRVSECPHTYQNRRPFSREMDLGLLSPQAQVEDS
RAC-beta serine/threonine-protein kinase (Homo sapiens), sequence (P31751 whole entry): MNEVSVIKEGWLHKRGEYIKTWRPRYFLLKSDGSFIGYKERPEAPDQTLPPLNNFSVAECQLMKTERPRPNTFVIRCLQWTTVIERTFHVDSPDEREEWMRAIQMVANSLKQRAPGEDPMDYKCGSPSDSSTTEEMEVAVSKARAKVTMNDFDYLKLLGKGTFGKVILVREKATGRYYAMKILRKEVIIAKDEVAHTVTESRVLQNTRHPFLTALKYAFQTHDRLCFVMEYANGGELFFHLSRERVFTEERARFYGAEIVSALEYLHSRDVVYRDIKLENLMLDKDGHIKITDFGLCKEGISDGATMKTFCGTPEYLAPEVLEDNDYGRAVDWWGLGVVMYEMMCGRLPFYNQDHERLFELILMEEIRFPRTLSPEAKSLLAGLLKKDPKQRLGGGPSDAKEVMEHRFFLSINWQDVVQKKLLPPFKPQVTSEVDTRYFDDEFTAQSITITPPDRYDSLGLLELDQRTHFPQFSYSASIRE
Serine/threonine-protein kinase TBK1 (Homo sapiens), sequence (Q9UHD2 whole entry): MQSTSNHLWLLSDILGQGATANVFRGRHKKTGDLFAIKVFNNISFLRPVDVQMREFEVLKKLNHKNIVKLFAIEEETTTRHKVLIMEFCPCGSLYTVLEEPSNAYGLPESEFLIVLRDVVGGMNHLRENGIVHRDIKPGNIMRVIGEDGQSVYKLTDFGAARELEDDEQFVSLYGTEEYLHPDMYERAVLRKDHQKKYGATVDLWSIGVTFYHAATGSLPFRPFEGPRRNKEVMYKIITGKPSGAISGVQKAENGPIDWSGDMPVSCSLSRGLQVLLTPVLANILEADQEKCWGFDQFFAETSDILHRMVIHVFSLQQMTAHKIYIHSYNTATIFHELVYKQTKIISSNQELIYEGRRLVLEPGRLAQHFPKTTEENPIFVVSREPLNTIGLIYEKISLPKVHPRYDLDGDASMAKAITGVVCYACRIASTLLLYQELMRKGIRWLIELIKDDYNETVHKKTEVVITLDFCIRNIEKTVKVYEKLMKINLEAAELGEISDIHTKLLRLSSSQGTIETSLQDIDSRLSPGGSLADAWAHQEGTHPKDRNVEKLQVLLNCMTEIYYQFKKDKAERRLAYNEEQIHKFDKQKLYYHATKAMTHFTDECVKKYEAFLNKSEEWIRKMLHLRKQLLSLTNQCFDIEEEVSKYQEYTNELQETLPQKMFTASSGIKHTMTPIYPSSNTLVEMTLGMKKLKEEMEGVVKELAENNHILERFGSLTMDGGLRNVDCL
Inhibitor of nuclear factor kappa-B kinase subunit epsilon (Homo sapiens), sequence (Q14164 whole entry): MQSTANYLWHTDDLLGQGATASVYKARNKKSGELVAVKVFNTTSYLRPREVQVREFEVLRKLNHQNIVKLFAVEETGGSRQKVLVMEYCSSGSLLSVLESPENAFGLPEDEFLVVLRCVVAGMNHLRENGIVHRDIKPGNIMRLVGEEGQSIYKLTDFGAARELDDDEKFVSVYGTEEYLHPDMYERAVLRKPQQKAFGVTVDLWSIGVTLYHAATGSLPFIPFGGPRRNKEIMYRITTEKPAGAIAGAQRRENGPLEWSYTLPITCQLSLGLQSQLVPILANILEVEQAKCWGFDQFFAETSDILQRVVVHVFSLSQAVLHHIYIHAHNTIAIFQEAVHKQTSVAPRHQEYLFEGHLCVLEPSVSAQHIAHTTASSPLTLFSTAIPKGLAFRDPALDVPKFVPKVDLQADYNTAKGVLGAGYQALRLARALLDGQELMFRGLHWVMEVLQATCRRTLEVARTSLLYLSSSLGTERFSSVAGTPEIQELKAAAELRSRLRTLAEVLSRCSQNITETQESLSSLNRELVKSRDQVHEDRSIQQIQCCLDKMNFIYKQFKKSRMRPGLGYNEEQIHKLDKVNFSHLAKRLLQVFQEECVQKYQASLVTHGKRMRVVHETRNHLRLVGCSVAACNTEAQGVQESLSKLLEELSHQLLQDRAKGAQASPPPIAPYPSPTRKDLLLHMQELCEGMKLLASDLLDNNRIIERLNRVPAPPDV
Dual specificity mitogen-activated protein kinase kinase 3 (Homo sapiens), sequence (P46734 whole entry): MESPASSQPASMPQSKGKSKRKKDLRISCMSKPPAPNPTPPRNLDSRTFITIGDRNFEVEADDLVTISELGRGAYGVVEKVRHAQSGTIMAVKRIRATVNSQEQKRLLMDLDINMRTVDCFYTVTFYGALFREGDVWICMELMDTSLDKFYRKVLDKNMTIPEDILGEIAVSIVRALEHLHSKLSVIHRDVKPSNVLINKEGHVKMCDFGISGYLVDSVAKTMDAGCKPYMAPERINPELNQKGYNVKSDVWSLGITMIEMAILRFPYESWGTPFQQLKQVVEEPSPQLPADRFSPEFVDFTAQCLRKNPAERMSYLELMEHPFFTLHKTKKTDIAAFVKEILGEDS
Phosphatidylinositol 4-kinase beta (Homo sapiens), sequence (Q9UBF8 2-816 limits assumed): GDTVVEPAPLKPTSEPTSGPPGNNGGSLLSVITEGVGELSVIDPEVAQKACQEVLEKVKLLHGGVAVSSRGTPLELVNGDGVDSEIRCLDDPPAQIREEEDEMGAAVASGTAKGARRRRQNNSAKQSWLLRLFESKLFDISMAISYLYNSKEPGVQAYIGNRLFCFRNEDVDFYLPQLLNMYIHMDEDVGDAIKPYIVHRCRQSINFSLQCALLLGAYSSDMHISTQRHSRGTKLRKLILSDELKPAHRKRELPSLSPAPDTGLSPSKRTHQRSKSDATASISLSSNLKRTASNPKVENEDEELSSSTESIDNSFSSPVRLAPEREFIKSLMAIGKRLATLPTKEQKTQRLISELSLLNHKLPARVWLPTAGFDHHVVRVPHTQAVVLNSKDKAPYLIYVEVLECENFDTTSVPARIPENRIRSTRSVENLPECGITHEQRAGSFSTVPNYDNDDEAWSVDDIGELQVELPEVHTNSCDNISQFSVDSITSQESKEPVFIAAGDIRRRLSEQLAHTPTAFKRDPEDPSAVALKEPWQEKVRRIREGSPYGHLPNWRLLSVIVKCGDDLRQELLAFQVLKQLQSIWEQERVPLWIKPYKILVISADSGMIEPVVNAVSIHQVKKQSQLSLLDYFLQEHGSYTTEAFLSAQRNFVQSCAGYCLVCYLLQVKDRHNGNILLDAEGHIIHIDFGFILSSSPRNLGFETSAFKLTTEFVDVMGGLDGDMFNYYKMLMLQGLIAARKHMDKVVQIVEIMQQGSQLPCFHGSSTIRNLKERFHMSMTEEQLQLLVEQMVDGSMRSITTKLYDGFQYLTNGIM
BDNF/NT-3 growth factors receptor (Homo sapiens), sequence (Q16620 32-822 limits assumed): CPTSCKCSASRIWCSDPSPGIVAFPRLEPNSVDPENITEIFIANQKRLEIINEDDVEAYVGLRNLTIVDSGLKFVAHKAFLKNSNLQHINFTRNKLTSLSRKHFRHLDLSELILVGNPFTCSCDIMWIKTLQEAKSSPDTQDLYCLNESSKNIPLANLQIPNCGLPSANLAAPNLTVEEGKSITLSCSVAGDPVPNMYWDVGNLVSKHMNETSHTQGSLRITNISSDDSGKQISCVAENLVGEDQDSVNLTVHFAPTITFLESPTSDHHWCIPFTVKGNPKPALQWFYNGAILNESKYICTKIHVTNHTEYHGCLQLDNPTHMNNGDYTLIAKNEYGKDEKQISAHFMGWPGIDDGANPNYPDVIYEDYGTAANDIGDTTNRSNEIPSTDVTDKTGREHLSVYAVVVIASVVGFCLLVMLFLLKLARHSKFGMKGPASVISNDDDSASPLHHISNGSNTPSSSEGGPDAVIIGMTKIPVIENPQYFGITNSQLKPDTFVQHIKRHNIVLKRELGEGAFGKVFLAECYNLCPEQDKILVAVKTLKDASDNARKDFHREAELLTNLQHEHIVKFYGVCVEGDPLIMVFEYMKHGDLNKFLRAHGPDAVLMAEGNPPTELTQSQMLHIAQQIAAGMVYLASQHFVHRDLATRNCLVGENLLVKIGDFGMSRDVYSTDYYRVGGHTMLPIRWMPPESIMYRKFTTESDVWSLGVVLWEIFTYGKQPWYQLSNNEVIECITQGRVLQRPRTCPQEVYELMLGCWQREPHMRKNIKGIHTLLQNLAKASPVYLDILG
Receptor-type tyrosine-protein kinase FLT3 (Homo sapiens), sequence (P36888 whole entry): as the sequence (P36888 whole entry, looked up, stated change not applied) above

Cc1cc(NC(=O)c2cccc(S(F)(F)(F)(F)F)c2)cc(-n2ccn3nc(-c4cccnc4)cc23)c1 [BAY-309]
inactive: residual activity [1, 45] 93.1% | residual activity [2, 45] 95.8% | residual activity [3, 45] 100% | residual activity [4, 45] 100% | residual activity [5, 45] 77.7% | residual activity [6, 45] 100% | residual activity [7, 45] 94.5% | residual activity [8, 45] 91.4% | residual activity [10, 45] 89% | residual activity [11, 45] 66.1% | residual activity [12, 45] 100% | residual activity [14, 45] 91.3% | residual activity [15, 45] 66.7% | residual activity [16, 45] 100% | residual activity [17, 45] 76% | residual activity [18, 45] 72.5% | residual activity [19, 45] 80.5% | residual activity [20, 45] 80.4% | residual activity [21, 45] 78.6% | residual activity [22, 45] 73.5% | residual activity [23, 45] 82% | inhibition [24] 38.1% | residual activity [25, 45] 100% | residual activity [26, 45] 100% | residual activity [27, 45] 100% | residual activity [28, 45] 100% | residual activity [29, 45] 88.6% | residual activity [30, 45] 100% | residual activity [31, 45] 100% | residual activity [32, 45] 100% | inhibition [33] 19.9% | residual activity [34, 45] 100% | residual activity [35, 45] 86.7% | residual activity [36, 45] 100% | residual activity [37, 45] 85.2% | residual activity [40, 45] 100% | residual activity [41, 45] 82.5% | residual activity [42, 45] 62.1% | residual activity [43, 45] 51.3% | residual activity [44, 45] 100%
active: residual activity [9, 45] 49.7% | residual activity [13, 45] 35.9% | residual activity [38, 45] 40% | inhibition [39] 62.9%

Cc1cc(C)c(-n2ccn3nc(-c4cccnc4)cc23)cc1NC(=O)c1cc(C#N)cc(S(F)(F)(F)(F)F)c1 [BAY-826]
active: residual activity [14, 46] 48.2% | residual activity [22, 46] 45.6%
inactive: residual activity [1, 46] 80.8% | residual activity [2, 46] 100% | residual activity [3, 46] 76.6% | residual activity [4, 46] 85.5% | residual activity [5, 46] 79.5% | residual activity [6, 46] 69.3% | residual activity [7, 46] 78.6% | residual activity [8, 46] 100% | residual activity [9, 46] 62.8% | residual activity [10, 46] 92.9% | residual activity [11, 46] 87.7% | residual activity [12, 46] 100% | residual activity [13, 46] 91.8% | residual activity [15, 46] 74.5% | residual activity [16, 46] 77% | residual activity [17, 46] 74.7% | residual activity [18, 46] 77.8% | residual activity [19, 46] 93.9% | residual activity [20, 46] 100% | residual activity [21, 46] 64.7% | residual activity [23, 46] 78.6% | inhibition [24] 10.7% | residual activity [25, 46] 71.4% | residual activity [26, 46] 68.6% | residual activity [27, 46] 59.9% | residual activity [28, 46] 100% | residual activity [29, 46] 84.5% | residual activity [30, 46] 94.3% | residual activity [31, 46] 84.1% | residual activity [32, 46] 80.4% | inhibition [33] 3.57% | residual activity [34, 46] 93.4% | residual activity [35, 46] 100% | residual activity [36, 46] 85.8% | residual activity [37, 46] 95% | residual activity [38, 46] 54.8% | inhibition [39] 1.95% | residual activity [40, 46] 94.8% | residual activity [41, 46] 88.4% | residual activity [42, 46] 81.9% | residual activity [43, 46] 100% | residual activity [44, 46] 67.4%
